{"source": "patent US20170273917A1", "about": "“NMDA RECEPTOR ANTAGONISTS FOR TREATING GAUCHER DISEASE” (Yeda Research and Development Co. Ltd., priority 2014, published 2017)", "key": {"inbred mouse strains": {"system": "inbred mouse strains", "test": "Survival of inbred mouse strains injected daily with CBE (GD induction)", "format": "in vivo", "settings": "for Average survival time: CBE 25 mg/kg/day i.p. daily from P8", "description": "Mice—Pure inbred mouse strains were obtained from the Jackson laboratories (USA), Harlan UK and Harlan Israel. Specifically, BTBR T^+ Itpr3^tf/J C3H/HeJ, DBA/2J, MRL/MpJ, WSB/EiJ, MOLF/Ei, PWD/PhJ, KK/HiJ, BPL/1J, I/LnJ, BPN/3J, and LP/J were obtained from Jackson; A/J, AKR/J, NZW/LacJ, 129S1/SvImJ were obtained from Harlan laboratories in the UK; and C57BL/6JOlaHsd, BALB/cJ and FVB/NJ were obtained from the Harlan laboratories in Israel. Gba^flox/flox; nestin-Cre mice, a mouse model of GD were generated as described in Vitner et al. Nature Medicine (2014) 20: 204-208; and Enquist, I. B. et al. Proc. Natl. Acad. Sci. USA (2007) 104: 17483-17488. These mice recapitulate many features of human nGD, although their Gba1 deficiency is restricted to neural and macroglial lineages. Mice were maintained under specific pathogen-free conditions and handled according to protocols approved by the Weizmann Institute Animal Care Committee according to international guidelines.\nCBE injections—Conduritol-β-epoxide (CBE) was obtained from Calbiochem Millipore (Darmstadt, Germany). CBE at a dose of 25 mg or 50 mg per kg body weight per day or PBS (control) were administered i.p. to mice daily starting from postnatal day 8 (P8) of age.\nTo study the potential of different mouse stains to serve as a reliable model for Type 2/3 GD, 15 different inbred mouse strains were chosen. CBE has been used to induce GD in mice for many years (Mumford et al., 1975), and it was used to generate the first animal model for GD disease. CBE is water soluble and crosses the blood brain barrier. The 15 mice strains chosen have diverse phylogenetic origins and their SNP profile is freely available (FIG. 1A). Mice were daily injected i.p. with 25 mg/kg/day of CBE starting on postnatal day 8 and for the rest of their lives (Vitner et al., 2014). […] The strains could be divided into two groups: mice in the first group were very homogeneous in their behavior; they developed a very aggressive disease with a short life span. The second group of strains presented a much longer life expectancy with a broader spectrum of phenotypes."}, "GBA1": {"biological_target": "T1, GBA1 (Mus musculus, UniProt P17439)", "T1 construct": "from tissue; host or cells: mouse brain (frozen half-brain homogenate) of inbred strains treated in vivo with PBS, CBE or CBE plus memantine", "T1 sequence (P17439 20-515)": "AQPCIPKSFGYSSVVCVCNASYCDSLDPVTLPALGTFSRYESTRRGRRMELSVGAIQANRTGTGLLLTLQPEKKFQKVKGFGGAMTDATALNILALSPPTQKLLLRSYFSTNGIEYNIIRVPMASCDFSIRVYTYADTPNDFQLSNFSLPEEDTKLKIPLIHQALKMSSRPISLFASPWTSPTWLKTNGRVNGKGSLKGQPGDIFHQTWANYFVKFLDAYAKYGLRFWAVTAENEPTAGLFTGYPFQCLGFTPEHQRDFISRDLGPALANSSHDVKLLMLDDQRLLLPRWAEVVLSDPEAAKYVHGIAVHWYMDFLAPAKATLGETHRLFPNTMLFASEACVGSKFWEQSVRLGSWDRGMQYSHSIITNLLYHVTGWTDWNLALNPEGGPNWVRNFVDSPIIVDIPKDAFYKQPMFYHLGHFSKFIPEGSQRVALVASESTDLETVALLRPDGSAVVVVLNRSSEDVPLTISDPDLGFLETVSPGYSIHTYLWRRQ", "test": "GBA1 activity assay in brain homogenates of treated mice", "format": "in vivo", "settings": "mice treated for 10 days with CBE vs PBS; all strains tested; brains harvested P18", "procedure": "GBA1 activity assay—GBA1 activity was performed as previously described (Farfel-Becker et al. Hum Mol Genet. 2014; 23(4):843-54). Briefly, frozen half-brain samples were sonicated in Mcllvaine's buffer (0.1 M citric acid, pH 4.2, 0.2 M Na2HPO4, 29:21, vol:vol). Tissue homogenates containing 50 μg of protein were incubated at 37° C. with 8 μM C6-NBD-GlcCer (Avanti Polar Lipids, Alabaster, Ala., USA) in a final volume of 25 μl Mcllvaine's buffer for 30 minutes. Lipids were extracted and the lower phase separated by thin layer chromatography using chloroform:methanol:9.8 mM CaCl2 (60:35:8, vol:vol:vol) as the developing solvent. C6-NBD-ceramide was identified with an authentic standard using a Typhoon 9410 variable mode imager and bands were quantified by Image-QuantTL (GE Healthcare, Chalfont St Giles, UK).\nTo eliminate the possibility that the phenotypic differences observed in the different mouse strains were caused by differential CBE metabolism in the brain, GBA1 enzymatic activity in mice treated for 10 days with CBE or PBS (control) was measured. […] Overall, the remaining GBA1 activity was 5-10% of the controls (FIG. 3A). There was no correlation between GBA1 activity in the brain and life spans neither in the PBS(R^2=0.126, data not shown) nor CBE conditions (R^2=0.0581, FIG. 3B). In addition, no correlation was found between inhibition of GBA1 activity and life span when evaluated according to strains (R^2=0.0085, data not shown)."}, "[1]": {"system": "CD68-positive cells in cortical layer V", "test": "Immunohistochemistry of CD68-positive cells in cortical layer V of the brain", "format": "in vivo, mouse", "procedure": "Immunohistochemistry—Mice were sacrificed and whole brains were fixed in 4% paraformaldehyde:PBS overnight at 4° C. Tissues were washed in PBS and sectioned with a microtome. Forty micrometer coronal sections were processed free floating in 2% BSA, 0.2% Triton X-100, PBS through all blocking, antibody incubation, and wash steps. Sections were incubated overnight at 4° C. with primary anti rat CD68 (AbD Serotec, Oxford, UK; 1:1000). Following washes, sections were incubated with secondary Cy2-conjugated donkey anti-rat antibody (1:200, Jackson). The presence of CD68-positive cells in cortical layer V of the brain was analyzed using an epifluorescent microscope (Zeiss).\nTo verify the results of Example 1, the presence of CD68-positive cells in the cortical layer V of the brain was analyzed in two exemplary strains, AKR/J (average mortality on day 24) and BTBR T^+ITPR3TF/J (100% mortality on day 199)."}, "rat hippocampal neurons": {"system": "rat hippocampal neurons", "settings": "rat hippocampal neurons treated with CBE; high concentrations of glutamate; in vitro; cited from earlier work"}}}
{"smiles": "O[C@H]1[C@H](O)[C@@H](O)[C@@H]2O[C@@H]2[C@@H]1O", "note": "[CBE, Conduritol-β-epoxide]", "values": [{"measurement": "Average survival time", "setting": "inbred mouse strains; 129S1/SvImJ mice", "result": 108, "unit": "days"}, {"measurement": "Average survival time", "setting": "inbred mouse strains; A/J mice", "result": 23, "unit": "days"}, {"measurement": "Average survival time", "setting": "inbred mouse strains; AKR/J mice", "result": 24, "unit": "days"}, {"measurement": "average mortality on day", "setting": "inbred mouse strains; AKR/J mice, CBE-treated", "result": 24, "unit": "days"}, {"measurement": "Average survival time", "setting": "inbred mouse strains; BALB/cJ mice", "result": 130, "unit": "days"}, {"measurement": "Average survival time", "setting": "inbred mouse strains; BTBR T+ITPR3TF/J mice", "result": 199, "unit": "days"}, {"measurement": "100% mortality on day", "setting": "inbred mouse strains; BTBR T+ITPR3TF/J mice, CBE-treated", "result": 199, "unit": "days"}, {"measurement": "Average survival time", "setting": "inbred mouse strains; C3H/HeJ mice", "result": 24, "unit": "days"}, {"measurement": "Average survival time", "setting": "inbred mouse strains; C57BL6/JolaHsd mice", "result": 29, "unit": "days"}, {"measurement": "Average survival time", "setting": "inbred mouse strains; DBA/2J mice", "result": 26, "unit": "days"}, {"measurement": "Average survival time", "setting": "inbred mouse strains; FVB/NJ mice", "result": 106, "unit": "days"}, {"measurement": "Average survival time", "setting": "inbred mouse strains; KK/HlJ mice", "result": 143, "unit": "days"}, {"measurement": "Average survival time", "setting": "inbred mouse strains; MOLF/Ei mice", "result": 41, "unit": "days"}, {"measurement": "Average survival time", "setting": "inbred mouse strains; MRL/MpJ mice", "result": 30, "unit": "days"}, {"measurement": "Average survival time", "setting": "inbred mouse strains; NZW/LacJ mice", "result": 84, "unit": "days"}, {"measurement": "Average survival time", "setting": "inbred mouse strains; PWD/Ph mice", "result": 119, "unit": "days"}, {"measurement": "Average survival time", "setting": "inbred mouse strains; WSB/EiJ mice", "result": 38, "unit": "days"}, {"measurement": "remaining cerebral GBA1 activity", "setting": "GBA1", "result": "5-10 % of the controls"}, {"measurement": "brain pathology (CD68-positive cells, cortical layer V)", "setting": "[1]; AKR/J mice treated with CBE, sacrificed P22", "result": "overt brain pathology"}, {"measurement": "brain pathology (CD68-positive cells, cortical layer V) and mortality", "setting": "[1]; BTBR T+ITPR3TF/J mice treated with CBE, sacrificed P208", "result": "less sensitive to CBE both in terms of mortality and brain pathology"}, {"measurement": "sensitivity of neurons to glutamate toxicity", "setting": "rat hippocampal neurons", "result": "more sensitive to the toxic effects of high concentrations of glutamate"}]}
